# Data: patent US6362220B1, “Anticonvulsant derivatives useful in reducing blood glucose levels” (Ortho-McNeil Pharmaceutical, Inc., priority 1999, dated 2002)
# Tests used:
# [1] = animal model of kindled epilepsy; cited from earlier work
# [2] = several rodent models; cited from earlier work
# [3] = retrospective analysis of long term open-label studies in epilepsy: blood glucose; assay type: in vivo, human; conditions: 14 epilepsy patients, overweight (>100 kg) with high blood glucose (>115 mg/dl); study mean daily dosage 622 mg/day, mean duration 689 days
# [4] = human epilepsy; adjunctive therapy or monotherapy; cited from earlier work
smiles,measurement,setting,value
"CC1(C)O[C@@H]2[C@@H](CO[C@@]3(COS(N)(=O)=O)OC(C)(C)O[C@@H]23)O1 [topiramate, 2,3:4,5-bis-O-(1-methylethylidene)-β-D-fructopyranose sulfamate]",seizure block in kindled epilepsy model,[1],effectively block seizures
same,seizure block in rodent models of epilepsy,[2],effectively block seizures
same,reduction in blood glucose,[3],5.8%
same,efficacy in treating seizures in clinical trials,[4],effective as adjunctive therapy or as monotherapy
